# From US20120021437A1, “TETRANOR-PGDM/PGJM SPECIFIC IMMUNOGENS, ANTIBODIES, TRACERS, ASSAY KITS AND METHODS FOR MAKING SAME” (Cayman Chemical Company, Incorporated, priority 2010, published 2012)
# System: Tetranor-PGDM EIA Antiserum
# Experiment: Cross-reactivity testing of the antibody in competitive tetranor-PGDM EIA
# Settings: Specificity of the Tetranor-PGDM EIA Antiserum; Example 3 Step D2c
# Description: To determine cross-reactivity of an antibody, the standard curve using optimal tracer and Ab dilutions according the kit instructions was set up. Tetranor PGDM was diluted to 10 ng/mL for the first point in the standard curve and diluted 2.5-fold serially 7 times. First standard dilutions (10 μg/mL) of tetranor-PGJM, tetranor-PGEM, tetranor-PGFM, PGA2, PGD2, PGE2, PGF2α, PGJ2, 13,14-dihydro-15-keto PGD2, 13,14-dihydro-15-keto-PGE2, 13,14-dihydro-15-keto-PGF2, were prepared and 7 additional 6-fold serial dilutions were performed. IC50s of all compounds were determined and each percent cross-reactivity (% XR) values of the potentially cross-reactive compounds was determined by dividing the IC50 of tetranor-PGDM by the IC50 of the test compound and multiplying by 100.
row,Compound,Cross-reactivity (% XR)
1,"CCCCCC(=O)CC[C@H]1C(=O)C[C@H](O)[C@@H]1C/C=C\CCCC(=O)O [13,14-dihydro-15-keto Prostaglandin D2]",<0.01%
2,"CCCCCC(=O)CC[C@H]1[C@H](O)CC(=O)[C@@H]1C/C=C\CCCC(=O)O [13,14-dihydro-15-keto Prostaglandin E2]",<0.01%
3,"CCCCCC(=O)CC[C@@H]1[C@@H](C/C=C\CCCC(=O)O)[C@@H](O)C[C@H]1O [13,14-dihydro-15-keto Prostaglandin F2α]",<0.01%
4,CCCCC[C@H](O)/C=C/[C@H]1C=CC(=O)[C@@H]1C/C=C\CCCC(=O)O [Prostaglandin A2],<0.01%
5,CCCCC[C@H](O)/C=C/[C@H]1C(=O)C[C@H](O)[C@@H]1C/C=C\CCCC(=O)O [Prostaglandin D2],<0.01%
6,CCCCC[C@H](O)/C=C/[C@H]1[C@H](O)CC(=O)[C@@H]1C/C=C\CCCC(=O)O [Prostaglandin E2],<0.01%
7,CCCCC[C@H](O)/C=C/[C@H]1C(=O)C=C[C@@H]1C/C=C\CCCC(=O)O [Prostaglandin J2],<0.01%
8,"O=C(O)CCCCC(=O)CC[C@H]1C(=O)C[C@H](O)[C@@H]1CCC(=O)O [tetranor-PGDM, 9α-hydroxy-11,15-dioxo-13,14-dihydro-2,3,4,5-tetranor-prostan-1,20-dioic acid]",100%
9,O=C(O)CCCCC(=O)CC[C@H]1[C@H](O)CC(=O)[C@@H]1CCC(=O)O [tetranor-PGEM],0.3%
10,O=C(O)CCCCC(=O)CC[C@@H]1[C@@H](CCC(=O)O)[C@@H](O)C[C@H]1O [tetranor-PGFM],<0.01%
11,O=C(O)CCCCC(=O)CC[C@H]1C(=O)C=C[C@@H]1CCC(=O)O [tetranor-PGJM],376%
12,Prostaglandin F2α,<0.01%
